This passage reports IC50 and inhibition results from patent US20140288040A1, “SUBSTITUTED BENZYLAMINE COMPOUNDS, THEIR USE IN MEDICINE, AND IN PARTICULAR THE TREATMENT OF HEPATITIS C VIRUS (HCV) INFECTION” (ASTEX THERAPEUTICS LIMITED, priority 2011, published 2014).

Where a name gives a salt, the structure may show the parent alone.

The target of one experiment is T1, HCV NS3 protease (full length NS34a) (Hepatitis C virus genotype 1b, UniProt P26663).
T1 construct: The protease activity of the full length NS34a was measured using a FRET-based assay; made in house
T1 sequence (P26663 1658-1711): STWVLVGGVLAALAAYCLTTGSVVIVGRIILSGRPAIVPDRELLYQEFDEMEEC
T1 sequence (P26663 1027-1657): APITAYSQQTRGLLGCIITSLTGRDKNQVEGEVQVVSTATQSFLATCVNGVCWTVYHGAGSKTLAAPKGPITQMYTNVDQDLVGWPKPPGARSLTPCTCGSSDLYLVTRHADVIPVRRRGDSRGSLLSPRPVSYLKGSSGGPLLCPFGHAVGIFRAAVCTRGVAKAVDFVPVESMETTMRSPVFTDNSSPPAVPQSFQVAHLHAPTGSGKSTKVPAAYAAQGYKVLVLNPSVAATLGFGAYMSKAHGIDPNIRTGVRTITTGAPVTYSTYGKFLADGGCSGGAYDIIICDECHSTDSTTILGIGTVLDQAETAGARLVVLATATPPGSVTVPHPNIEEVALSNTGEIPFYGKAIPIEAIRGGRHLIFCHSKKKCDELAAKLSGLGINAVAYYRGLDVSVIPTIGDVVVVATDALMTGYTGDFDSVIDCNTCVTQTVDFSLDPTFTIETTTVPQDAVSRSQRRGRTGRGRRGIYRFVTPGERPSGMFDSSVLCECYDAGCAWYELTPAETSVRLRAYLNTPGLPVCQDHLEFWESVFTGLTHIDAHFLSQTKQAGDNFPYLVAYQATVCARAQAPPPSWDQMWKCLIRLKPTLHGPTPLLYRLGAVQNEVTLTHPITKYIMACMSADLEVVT
In words: HCV NS3 protease assay (FRET, full length NS34a). Type of experiment: biochemical. To be noted: IC50 values of 10-150 μM against the protease activity of the full length NS34a, or at least 40% inhibition of protease activity at a concentration of 100 μM. The protocol:
The HCV NS3 protease functions have been extensively studied and are considered as potential targets for antiviral therapy: see for example the many references listed in the introductory section of this application. Therefore, the activity of the compounds of the invention as anti-HCV agents was assessed using a full length HCV NS3 protease.
The protease activity of the full length NS34a was measured using a FRET-based assay utilizing a peptide substrate derived from the NS4AB cleavage site (Anaspec) and labelled at one end with a quencher (QXL520) and at the other with a fluorophore (5-FAMsp). NS34a (produced in-house by literature methods) was incubated with test compounds and peptide substrate in 50 mM Tris pH8, 20 mM DTT, 1% CHAPS, 10% glycerol and 5% DMSO. The reaction was followed by monitoring the change in fluorescence on a Molecular Devices Gemini plate reader for 30 minutes at room temperature. Initial rates were calculated from the progress curves using SoftMax Pro (Molecular Devices). IC50 values were then calculated from replicate curves using Prism GraphPad software.
For orientation: IC50 means the concentration needed to halve the response being measured. Take `CCC(NCc1cnc(C)n1C)c1ccc(F)c(Oc2ccccc2)c1F` (stereo not shown) [Example 23]: the IC50 lay within 10 to 150 µM. The same measure, in the same setting: as for `CC[C@@H](N[C@H](C)CC(N)=O)c1ccc(F)c(Oc2ccccc2)c1F` [Example 120], the figure is 10 to 150 µM. In turn, `C[C@H](CC(N)=O)N[C@H](C)c1ccc(Cl)c(Oc2ccccc2)c1F` [Example 335] came in with an IC50 of 10 to 150 µM. On the same count and under the same terms, then `CCC[C@@H](N[C@H](C)CC(N)=O)c1ccc(Cl)c(Oc2ccccc2)c1F` [Example 126], with 10 to 150 µM; and `CCC(NC(C)CC(=O)NC)c1ccc(F)c(Oc2ccccc2)c1F` (stereo not shown) [Example 48], with 10 to 150 µM. `CC[C@@H](N[C@H](C)c1ccc[nH]c1=O)c1ccc(Cl)c(Oc2ccccc2)c1F` (single isomer, unassigned) [Example 314] displayed an IC50 of 10 to 150 µM. `CC[C@@H](N[C@@H](C)C(=O)N(C)C)c1ccc(Cl)c(Oc2ccccc2)c1F` [Example 332] registered a half-inhibitory concentration (IC50) of 10 to 150 µM. With `CC[C@@H](N[C@@H](C)CC(=O)NCC(=O)OC)c1ccc(Cl)c(Oc2ccccc2)c1F` [Example 159], the IC50 was 10 to 150 µM. Still for that read-out and setting: then `CCc1ccc(C(N)CC2CCNCC2)c(F)c1Oc1ccccc1` (stereo not shown) [Example 105B, 1-(4-Ethyl-2-fluoro-3-phenoxy-phenyl)-2-piperidin-4-yl-ethylamine.dihydrochloride], with 10 to 150 µM. Still for that read-out and setting: as for `CCC(NCc1ncc[nH]1)c1ccc(F)c(Oc2ccccc2)c1F` (stereo not shown) [Example 292], the figure is 10 to 150 µM; as for `C=CCN[C@@H](CC)c1ccc(F)c(Oc2ccccc2)c1F` [Example 102, Allyl-[(S)-1-(2,4-difluoro-3-phenoxy-phenyl)-propyl]-amine.hydrochloride], 10 to 150 µM; as for `CC[C@@H](N[C@@H](CC(N)=O)C(C)C)c1ccc(Cl)c(Oc2ccccc2)c1F` [Example 142], 10 to 150 µM. On the same count and under the same terms, as for `CC[C@@H](N)c1ccc(Cl)c(Oc2ccc(Cl)nn2)c1F` [Example 153], the figure is 10 to 150 µM.

Consider `CC[C@@H](N[C@H](C)CC(=O)N[C@@H](C)CO)c1ccc(Cl)c(Oc2ccccc2)c1F` [Example 205], for which the IC50 lay in the range of 10 to 150 µM. The compound `CCC(NCc1ccc2[nH]ccc2c1)c1ccc(F)c(Oc2ccccc2)c1F` (stereo not shown) [Example 35] had an IC50 of 10 to 150 µM.

Take `NCCC(N)c1ccc(F)c(Oc2ccccc2)c1F` (stereo not shown) [Example 94]: the IC50 fell in the range of 10 to 150 µM. In turn, `C[C@@H](CC(N)=O)N[C@@H](c1ccc(Cl)c(Oc2ccccc2)c1F)C1CCOCC1` [Example 299] displayed an IC50 of 10 to 150 µM.

The compound `N[C@@H](CC1CCOCC1)c1ccc(Cl)c(Oc2ccccc2)c1F` [Example 276B, (S)-1-(4-Chloro-2-fluoro-3-phenoxy-phenyl)-2-(tetrahydro-pyran-4-yl)-ethylamine.hydrochloride] came in with a half-maximal inhibitory concentration (IC50) of 10 to 150 µM.

Take `CC[C@@H](N)c1ccc(Cl)c(Oc2ccc(CO)nc2)c1F` [Example 231]: the IC50 was 10 to 150 µM. As to `CC[C@@H](N[C@@H](C)CC(=O)N[C@H]1C[C@@H](N)C1)c1ccc(Cl)c(Oc2ccccc2)c1F` [Example 320], the IC50 fell in the range of 10 to 150 µM. In turn, `CC[C@@H](N)c1ccc(Cl)c(Oc2ccc(C(F)(F)F)cc2)c1F` [Example 175] had an IC50 of 10 to 150 µM.

`NC(=O)C[C@@H](N)c1ccc(Cl)c(Oc2ccccc2)c1F` [Example 354] had a half-maximal inhibitory concentration (IC50) of 10 to 150 µM. In turn, `C=CCNC(CC)c1ccc(F)c(Oc2ccccc2)c1F` (stereo not shown) [Example 39, Allyl-[1-(2,4-difluoro-3-phenoxy-phenyl)-propyl]-amine. hydrochloride] registered an IC50 of 10 to 150 µM.

The compound `CC[C@@H](N)c1ccc(Cl)c(Oc2cccc(C(=O)NCCC#N)c2)c1F` [Example 191] had an IC50 of 10 to 150 µM. The same measure, in the same setting: as for `CCC(NC(C)c1ccn[nH]1)c1ccc(F)c(Oc2ccccc2)c1F` (stereo not shown) [Example 33], the figure is 10 to 150 µM. The same measure, in the same setting: then `CC[C@@H](N[C@@H](C)CC(=O)N[C@@H](C)CO)c1ccc(Cl)c(Oc2ccccc2)c1F` [Example 206], with 10 to 150 µM; and `C[C@H](CC(N)=O)N[C@@H](CC1CCNCC1)c1ccc(F)c(Oc2ccccc2)c1F` [Example 99], with 10 to 150 µM. On the same count and under the same terms, as for `CC[C@@H](N[C@@H](C)CC(=O)N(C)OC)c1ccc(Cl)c(Oc2ccccc2)c1F` [Example 161], the figure is 10 to 150 µM.

Still in this experiment, the particulars now being: protease activity of full length NS34a, FRET peptide substrate; read-out: Activity IC50.
For the compound `CC[C@@H](N)c1ccc(Cl)c(Oc2ccc(F)cc2)c1F` [Example 150], the IC50 was found to be 2 µM. On the same count and under the same terms, as for `CC[C@@H](N)c1ccc(Cl)c(Oc2ccc(S(C)(=O)=O)cc2)c1F` [Example 174], the figure is 6.2 µM. On the same count and under the same terms, then `CC[C@@H](N)c1ccc(Cl)c(Oc2ccc(CC#N)cc2)c1F` [Example 179], with 0.61 µM; and `CS(=O)(=O)Nc1cccc(Oc2c(F)ccc(CNc3ccnc(N)c3)c2F)c1` [Example 286], with 3 µM.

As for `C[C@H](CC(N)=O)N[C@H](c1ccc(Cl)c(Oc2ccccc2)c1F)C1CCOCC1` [Example 348], the IC50 stood at 10 µM. Same read-out and setting: as for `C[C@@H](CC(N)=O)NCc1ccc(F)c(Oc2ccccc2)c1F` [Example 326], the figure is 3.9 µM; as for `CCC(NCc1c[nH]c2ccccc12)c1ccc(F)c(Oc2ccccc2)c1F` (stereo not shown) [Example 31], 7.1 µM; as for `CCC(CC)[C@H](N)c1ccc(Cl)c(Oc2ccccc2)c1F` [Example 347], 2.7 µM. As for `CC[C@@H](N)c1ccc(Cl)c(Oc2cccc(C#N)c2)c1F` [Example 199], the IC50 came to 3.8 µM.

On to `CC[C@@H](N)c1ccc(Cl)c(Oc2ccc(C3(CO)CC3)cc2)c1F` [Example 194], for which the IC50 was 3.1 µM. With `CC[C@@H](N)c1ccc(Cl)c(Oc2cccc(F)c2)c1F` [Example 149], the IC50 amounted to 3 µM. Still for that read-out and setting: as for `CC[C@@H](N)c1ccc(Cl)c(Oc2ccc(CNC(C)=O)cc2)c1F` [Example 198], the figure is 1.6 µM; as for `CC[C@@H](N)c1ccc(Cl)c(Oc2ccc(C3(C#N)CC3)cc2)c1F` [Example 192], 3.1 µM; as for `CC[C@@H](N[C@@H](C)CC(=O)NCCNC1CC1)c1ccc(Cl)c(Oc2ccccc2)c1F` [Example 321], 1.6 µM. Same read-out and setting: as for `CC[C@@H](N)c1ccc(Cl)c(Oc2ccc(CO)cc2)c1F` [Example 183], the figure is 1.2 µM; as for `CC[C@@H](N[C@H](C)CC(N)=O)c1ccc(Cl)c(Oc2ccc(C#N)c(OC)c2)c1F` [Example 209], 4.9 µM; as for `CC[C@@H](N)c1ccc(Cl)c(Oc2ccc(N)cn2)c1F` [Example 156, 6-[3-((R)-1-Amino-propyl)-6-chloro-2-fluoro-phenoxy]-pyridin-3-ylamine.dihydrochloride], 6.2 µM. The same measure, in the same setting: then `CC[C@H](Nc1ccncc1)c1ccc(F)c(Oc2ccccc2)c1F` [Example 144, [(S)-1-(2,4-Difluoro-3-phenoxy-phenyl)-propyl]-pyridin-4-yl-amine. hydrochloride], with 0.4 µM; and `CC[C@@H](N)c1ccc(Cl)c(Oc2ccc(Cl)cc2)c1F` [Example 176], with 1.7 µM; and `CC[C@@H](N)c1ccc(Cl)c(Oc2ccc(F)c(COC(=O)NCC3CC3)c2)c1F` [Example 190, Cyclopropylmethyl-carbamic acid 5-[3-((R)-1-amino-propyl)-6-chloro-2-fluoro-phenoxy]-2-fluoro-benzyl ester.hydrochloride], with 1.8 µM. With `C[C@H](CC(=O)NCCN)N[C@H](C)c1ccc(Cl)c(Oc2ccccc2)c1F` [Example 340], the IC50 came to 0.08 µM. On the same count and under the same terms, then `Cc1cc(Oc2c(Cl)ccc([C@@H](N)C3CCOCC3)c2F)ccc1[N+](=O)[O-]` [Example 345], with 1.8 µM; and `CCc1ccc(Oc2c(Cl)ccc([C@H](N)CC)c2F)cc1` [Example 187], with 6.9 µM; and `CC[C@H](N)c1ccc(Cl)c(Oc2ccccc2)c1Cl` [Example 261, (S)-1-(2,4-Dichloro-3-phenoxy-phenyl)-propylamine.hydrochloride], with 1.2 µM.

For the compound `CC[C@H](N)c1ccc(Cl)c(Oc2cccc(C(=O)N(C)Cc3cnn(Cc4ccccc4)c3)c2)c1F` [Example 138, 3-[3-((S)-1-Amino-propyl)-6-chloro-2-fluoro-phenoxy]-N-(1-benzyl-1H-pyrazol-4-ylmethyl)-N-methyl-benzamide.hydrochloride], the IC50 worked out at 0.63 µM. Same read-out and setting: as for `CC[C@@H](NCCC(N)=O)c1ccc(F)c(Oc2ccccc2)c1F` [Example 122], the figure is 1 µM. Still for that read-out and setting: then `CC[C@@H](N)c1ccc(Cl)c(Oc2ccc(C#N)cc2)c1F` [Example 158], with 0.42 µM. The same measure, in the same setting: as for `CC[C@@H](N)c1ccc(Cl)c(Oc2ccncc2)c1F` [Example 169], the figure is 4.8 µM; as for `C[C@H](CC(=O)NCCN)N[C@H](CC1CCOCC1)c1ccc(Cl)c(Oc2ccccc2)c1F` [Example 278], 3.9 µM; as for `COCC[C@@H](N)c1ccc(Cl)c(Oc2ccccc2)c1F` [Example 337, (R)-1-(4-Chloro-2-fluoro-3-phenoxy-phenyl)-3-methoxy-propylamine hydrochloride], 7.6 µM.

In the case of `CCC(NC(CO)CO)c1ccc(F)c(Oc2ccccc2)c1F` (stereo not shown) [Example 43], the IC50 came to 6.6 µM. On the same count and under the same terms, as for `CCc1ncc(CNC(CC)c2ccc(F)c(Oc3ccccc3)c2F)[nH]1` (stereo not shown) [Example 38], the figure is 9.7 µM.

The same experiment, now with this note: read-out: Activity % inhibition @ 0.01 μM; 0.01 μM compound.
As usually defined, the inhibition is the drop in the measured response relative to a control, in per cent. On to `C[C@@H](CC(=O)NCCN)N[C@H](C)c1ccc(Cl)c(Oc2ccccc2)c1F` [Example 339], for which the inhibition at 0.01 µM was 65%.
